Like-named read-outs stand apart in the source and are kept apart here.
Tests used:
Test in all cases: KiNativ, MOLM13 live cells
Format in all cases: cell-based
[1] = target: CHK2 (Homo sapiens, UniProt O96017); details: MOLM-13, 2 h, 100 nM
Protocol: (§1) Samples were analyzed by KiNativ in situ kinase profiling by ActivX Biosciences.

[2] = target: PKR (Homo sapiens, UniProt P19525); details: 100 nM, 2 hours
Protocol: as §1

[3] = target: CaMK1d (Homo sapiens, UniProt Q8IU85); details: MOLM-13; 100 nM, 2 hours; Lys1; read-out: Inhibition vs DMSO
Protocol: as §1

[4] = target: PYK2 (Homo sapiens, UniProt Q14289); details: MOLM-13; 100 nM, 2 hours; Activation Loop; read-out: Inhibition vs DMSO
Protocol: as §1

[5] = target: LOK (Homo sapiens, UniProt O94804); details: 100 nM, 2 hours
Protocol: as §1

[6] = target: MST2 (Homo sapiens, UniProt Q13188); details: MOLM-13; 100 nM, 2 hours; Lys1; read-out: Inhibition vs DMSO
Protocol: as §1

[7] = target: BARK1 (Homo sapiens, UniProt P25098); details: MOLM-13; 100 nM, 2 hours; Lys2; read-out: Inhibition vs DMSO
Protocol: as §1

[8] = target: FES (Homo sapiens, UniProt P07332); details: MOLM-13; 100 nM, 2 hours; Lys1; read-out: Inhibition vs DMSO
Protocol: as §1

[9] = target: T1, MAP2K4 (Homo sapiens, UniProt P45985); details: MOLM-13, 2 h, 100 nM
T1 sequence (P45985 1-399): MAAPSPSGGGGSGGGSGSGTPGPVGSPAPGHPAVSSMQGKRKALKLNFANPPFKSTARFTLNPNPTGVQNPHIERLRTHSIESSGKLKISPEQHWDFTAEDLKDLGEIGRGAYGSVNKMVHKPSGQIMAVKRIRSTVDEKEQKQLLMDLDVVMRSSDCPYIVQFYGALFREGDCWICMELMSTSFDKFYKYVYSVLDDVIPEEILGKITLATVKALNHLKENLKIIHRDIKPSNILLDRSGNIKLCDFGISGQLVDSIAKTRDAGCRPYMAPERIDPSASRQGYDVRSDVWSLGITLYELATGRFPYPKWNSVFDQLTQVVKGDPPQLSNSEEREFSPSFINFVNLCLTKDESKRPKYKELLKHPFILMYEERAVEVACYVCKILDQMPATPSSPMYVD
Protocol: as §1

[10] = target: LYN (Homo sapiens, UniProt P07948); details: MOLM-13; 100 nM, 2 hours; Activation Loop; read-out: Inhibition vs DMSO
Protocol: as §1

[11] = target: ZAK (Homo sapiens, UniProt Q9NYL2); details: MOLM-13; 100 nM, 2 hours; Lys1; read-out: Inhibition vs DMSO
Protocol: as §1

[12] = target: p38b (Homo sapiens, UniProt Q15759); details: MOLM-13; 100 nM, 2 hours; Other; read-out: Inhibition vs DMSO
Protocol: as §1

[13] = target: LKB1 (Homo sapiens, UniProt Q15831); details: MOLM-13; 100 nM, 2 hours; Lys2; read-out: Inhibition vs DMSO
Protocol: as §1

[14] = target: T2, NEK9 (Homo sapiens, UniProt Q8TD19); details: MOLM-13, 2 h, 100 nM
T2 sequence (Q8TD19 1-979): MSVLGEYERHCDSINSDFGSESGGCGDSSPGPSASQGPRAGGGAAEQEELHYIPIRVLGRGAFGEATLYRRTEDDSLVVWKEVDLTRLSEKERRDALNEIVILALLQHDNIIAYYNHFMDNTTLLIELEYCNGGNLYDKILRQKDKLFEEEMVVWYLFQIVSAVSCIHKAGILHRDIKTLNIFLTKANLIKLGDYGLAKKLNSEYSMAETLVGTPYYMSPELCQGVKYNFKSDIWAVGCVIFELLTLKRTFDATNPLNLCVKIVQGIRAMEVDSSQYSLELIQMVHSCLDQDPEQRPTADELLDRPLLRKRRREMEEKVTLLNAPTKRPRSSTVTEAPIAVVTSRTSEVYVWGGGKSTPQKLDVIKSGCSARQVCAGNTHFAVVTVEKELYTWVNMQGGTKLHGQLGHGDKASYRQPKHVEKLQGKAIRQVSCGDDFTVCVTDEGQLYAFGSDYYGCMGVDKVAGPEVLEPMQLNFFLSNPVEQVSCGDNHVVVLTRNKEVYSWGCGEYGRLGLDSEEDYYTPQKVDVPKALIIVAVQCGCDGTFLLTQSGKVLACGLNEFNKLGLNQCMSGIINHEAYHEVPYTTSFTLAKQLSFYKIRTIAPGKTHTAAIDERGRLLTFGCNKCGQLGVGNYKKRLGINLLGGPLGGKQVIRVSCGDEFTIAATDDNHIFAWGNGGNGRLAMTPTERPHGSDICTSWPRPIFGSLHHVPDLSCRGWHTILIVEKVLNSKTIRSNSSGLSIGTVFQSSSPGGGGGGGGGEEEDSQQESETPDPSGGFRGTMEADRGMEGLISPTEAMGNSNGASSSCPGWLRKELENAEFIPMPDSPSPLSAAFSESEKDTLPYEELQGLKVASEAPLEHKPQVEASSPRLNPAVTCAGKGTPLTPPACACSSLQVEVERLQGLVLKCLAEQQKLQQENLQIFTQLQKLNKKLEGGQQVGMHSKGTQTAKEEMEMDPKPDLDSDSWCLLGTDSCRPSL
Protocol: as §1

[15] = target: CDK2 (Homo sapiens, UniProt P24941); details: 100 nM, 2 hours
Protocol: as §1

[16] = target: NEK1 (Homo sapiens, UniProt Q96PY6); details: MOLM-13; 100 nM, 2 hours; Lys2; read-out: Inhibition vs DMSO
Protocol: as §1

[17] = target: MAP3K1 (Homo sapiens, UniProt Q13233); details: MOLM-13; 100 nM, 2 hours; Lys2; read-out: Inhibition vs DMSO
Protocol: as §1

[18] = target: RSKL1 (Homo sapiens, UniProt Q96S38); details: MOLM-13; 100 nM, 2 hours; ATP; read-out: Inhibition vs DMSO
Protocol: as §1

[19] = target: ATR (Homo sapiens, UniProt Q13535); details: MOLM-13; 100 nM, 2 hours; ATP; read-out: Inhibition vs DMSO
Protocol: as §1

[20] = Lys1, read-out: Inhibition vs DMSO
[21] = Lys2, read-out: Inhibition vs DMSO
[22] = Activation Loop, read-out: Inhibition vs DMSO

Sequence of PKR (P19525 whole entry): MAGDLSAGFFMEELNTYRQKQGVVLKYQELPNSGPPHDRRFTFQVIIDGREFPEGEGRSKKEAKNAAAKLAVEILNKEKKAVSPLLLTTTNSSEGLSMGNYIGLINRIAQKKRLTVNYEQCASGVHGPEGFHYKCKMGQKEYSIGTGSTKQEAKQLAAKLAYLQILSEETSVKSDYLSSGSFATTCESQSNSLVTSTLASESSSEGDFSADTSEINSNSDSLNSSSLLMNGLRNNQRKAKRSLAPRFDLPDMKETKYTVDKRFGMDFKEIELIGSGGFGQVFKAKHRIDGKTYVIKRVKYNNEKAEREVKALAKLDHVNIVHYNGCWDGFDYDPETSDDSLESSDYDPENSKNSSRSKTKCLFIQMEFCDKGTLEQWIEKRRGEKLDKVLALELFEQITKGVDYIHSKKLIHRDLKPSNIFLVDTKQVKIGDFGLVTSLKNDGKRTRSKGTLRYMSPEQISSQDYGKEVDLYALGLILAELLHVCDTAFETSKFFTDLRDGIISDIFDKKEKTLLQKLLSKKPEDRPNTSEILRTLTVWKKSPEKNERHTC
Sequence of LOK (O94804 whole entry): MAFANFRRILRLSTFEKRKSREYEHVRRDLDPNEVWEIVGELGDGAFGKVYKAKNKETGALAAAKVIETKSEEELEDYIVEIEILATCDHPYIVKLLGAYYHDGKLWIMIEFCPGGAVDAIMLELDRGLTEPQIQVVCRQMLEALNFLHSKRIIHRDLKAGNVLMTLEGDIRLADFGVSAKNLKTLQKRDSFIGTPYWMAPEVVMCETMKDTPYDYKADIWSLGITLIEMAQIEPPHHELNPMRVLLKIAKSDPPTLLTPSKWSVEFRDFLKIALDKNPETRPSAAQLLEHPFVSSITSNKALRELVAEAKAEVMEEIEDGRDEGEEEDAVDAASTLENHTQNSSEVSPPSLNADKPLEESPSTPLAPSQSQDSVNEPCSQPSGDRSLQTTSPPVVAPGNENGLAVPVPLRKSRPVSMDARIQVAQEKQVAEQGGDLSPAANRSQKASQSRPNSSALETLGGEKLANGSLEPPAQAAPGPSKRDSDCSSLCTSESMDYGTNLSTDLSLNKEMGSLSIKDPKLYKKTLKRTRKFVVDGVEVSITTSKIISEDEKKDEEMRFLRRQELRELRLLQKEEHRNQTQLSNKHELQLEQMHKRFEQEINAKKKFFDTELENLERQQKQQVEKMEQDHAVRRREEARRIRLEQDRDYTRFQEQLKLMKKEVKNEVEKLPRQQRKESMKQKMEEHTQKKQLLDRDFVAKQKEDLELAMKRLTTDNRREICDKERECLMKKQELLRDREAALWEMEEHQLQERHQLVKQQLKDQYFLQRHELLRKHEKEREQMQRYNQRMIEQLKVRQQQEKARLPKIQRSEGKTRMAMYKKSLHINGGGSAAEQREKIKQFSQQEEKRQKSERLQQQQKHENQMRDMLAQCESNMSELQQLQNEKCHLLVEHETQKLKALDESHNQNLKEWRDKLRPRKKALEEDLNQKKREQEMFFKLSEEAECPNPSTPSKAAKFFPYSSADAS
Sequence of CHK2 (O96017 whole entry): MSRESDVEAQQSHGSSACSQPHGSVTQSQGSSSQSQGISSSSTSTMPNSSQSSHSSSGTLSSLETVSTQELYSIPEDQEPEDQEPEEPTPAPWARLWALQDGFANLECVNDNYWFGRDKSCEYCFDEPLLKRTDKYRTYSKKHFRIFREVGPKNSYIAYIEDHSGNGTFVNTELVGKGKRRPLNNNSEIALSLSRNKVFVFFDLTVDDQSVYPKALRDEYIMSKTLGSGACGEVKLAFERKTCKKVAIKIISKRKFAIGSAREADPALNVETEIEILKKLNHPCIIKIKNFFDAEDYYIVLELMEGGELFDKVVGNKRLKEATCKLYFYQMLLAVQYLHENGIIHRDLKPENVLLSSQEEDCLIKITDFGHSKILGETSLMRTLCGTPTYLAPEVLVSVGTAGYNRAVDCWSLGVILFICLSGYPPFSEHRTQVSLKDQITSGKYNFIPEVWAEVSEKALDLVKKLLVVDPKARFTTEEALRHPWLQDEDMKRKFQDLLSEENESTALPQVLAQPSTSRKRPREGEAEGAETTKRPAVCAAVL
Sequence of LYN (P07948 whole entry): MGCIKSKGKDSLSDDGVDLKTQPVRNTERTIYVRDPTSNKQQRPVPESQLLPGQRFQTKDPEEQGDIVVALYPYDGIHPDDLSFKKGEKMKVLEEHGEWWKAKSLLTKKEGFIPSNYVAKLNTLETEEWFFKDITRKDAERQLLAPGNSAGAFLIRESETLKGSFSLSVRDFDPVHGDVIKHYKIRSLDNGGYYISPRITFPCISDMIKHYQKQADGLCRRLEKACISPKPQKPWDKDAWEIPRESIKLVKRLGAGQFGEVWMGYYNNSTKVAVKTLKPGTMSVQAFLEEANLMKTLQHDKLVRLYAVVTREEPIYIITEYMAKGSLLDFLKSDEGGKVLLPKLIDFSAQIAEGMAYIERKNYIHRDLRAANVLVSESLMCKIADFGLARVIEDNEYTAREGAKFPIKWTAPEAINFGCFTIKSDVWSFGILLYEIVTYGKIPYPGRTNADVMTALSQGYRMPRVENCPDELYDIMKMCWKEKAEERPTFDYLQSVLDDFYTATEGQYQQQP
Sequence of p38b (Q15759 whole entry): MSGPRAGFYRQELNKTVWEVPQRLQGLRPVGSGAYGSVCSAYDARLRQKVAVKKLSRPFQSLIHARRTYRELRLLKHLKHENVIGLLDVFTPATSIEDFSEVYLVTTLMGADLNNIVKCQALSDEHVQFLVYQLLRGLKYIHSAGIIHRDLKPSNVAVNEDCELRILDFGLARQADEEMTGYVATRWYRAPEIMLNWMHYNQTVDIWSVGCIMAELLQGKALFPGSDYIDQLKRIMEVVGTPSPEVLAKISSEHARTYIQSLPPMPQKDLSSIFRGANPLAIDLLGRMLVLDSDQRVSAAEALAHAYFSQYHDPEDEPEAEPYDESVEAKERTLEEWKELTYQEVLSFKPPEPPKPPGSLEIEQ
Sequence of RSKL1 (Q96S38 whole entry): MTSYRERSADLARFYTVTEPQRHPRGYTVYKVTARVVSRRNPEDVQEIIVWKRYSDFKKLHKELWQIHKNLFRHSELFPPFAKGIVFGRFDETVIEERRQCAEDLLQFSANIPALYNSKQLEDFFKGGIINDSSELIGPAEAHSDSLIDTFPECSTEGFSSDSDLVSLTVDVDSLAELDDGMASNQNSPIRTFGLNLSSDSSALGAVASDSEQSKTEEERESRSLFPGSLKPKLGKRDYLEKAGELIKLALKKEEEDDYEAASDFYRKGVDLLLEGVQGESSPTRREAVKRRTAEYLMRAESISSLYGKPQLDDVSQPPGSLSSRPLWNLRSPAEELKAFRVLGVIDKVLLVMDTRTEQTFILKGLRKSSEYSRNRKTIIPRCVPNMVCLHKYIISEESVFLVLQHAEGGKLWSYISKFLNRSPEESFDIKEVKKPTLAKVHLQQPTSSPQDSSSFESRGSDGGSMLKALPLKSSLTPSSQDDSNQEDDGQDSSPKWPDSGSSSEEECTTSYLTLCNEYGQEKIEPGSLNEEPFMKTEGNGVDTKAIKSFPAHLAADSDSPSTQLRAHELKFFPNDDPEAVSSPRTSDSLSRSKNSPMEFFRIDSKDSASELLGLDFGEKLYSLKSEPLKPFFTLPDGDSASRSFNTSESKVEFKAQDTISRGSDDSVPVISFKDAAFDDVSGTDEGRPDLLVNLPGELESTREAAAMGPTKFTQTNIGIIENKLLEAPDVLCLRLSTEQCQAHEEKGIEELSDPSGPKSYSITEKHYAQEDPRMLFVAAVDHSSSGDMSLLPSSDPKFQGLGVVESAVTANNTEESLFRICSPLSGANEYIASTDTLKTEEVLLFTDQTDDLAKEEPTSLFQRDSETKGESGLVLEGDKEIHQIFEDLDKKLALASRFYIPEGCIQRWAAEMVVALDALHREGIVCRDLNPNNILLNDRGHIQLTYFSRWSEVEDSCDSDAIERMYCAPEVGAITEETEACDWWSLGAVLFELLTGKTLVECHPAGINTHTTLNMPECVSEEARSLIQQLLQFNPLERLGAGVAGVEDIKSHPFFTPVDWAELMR
Sequence of BARK1 (P25098 whole entry): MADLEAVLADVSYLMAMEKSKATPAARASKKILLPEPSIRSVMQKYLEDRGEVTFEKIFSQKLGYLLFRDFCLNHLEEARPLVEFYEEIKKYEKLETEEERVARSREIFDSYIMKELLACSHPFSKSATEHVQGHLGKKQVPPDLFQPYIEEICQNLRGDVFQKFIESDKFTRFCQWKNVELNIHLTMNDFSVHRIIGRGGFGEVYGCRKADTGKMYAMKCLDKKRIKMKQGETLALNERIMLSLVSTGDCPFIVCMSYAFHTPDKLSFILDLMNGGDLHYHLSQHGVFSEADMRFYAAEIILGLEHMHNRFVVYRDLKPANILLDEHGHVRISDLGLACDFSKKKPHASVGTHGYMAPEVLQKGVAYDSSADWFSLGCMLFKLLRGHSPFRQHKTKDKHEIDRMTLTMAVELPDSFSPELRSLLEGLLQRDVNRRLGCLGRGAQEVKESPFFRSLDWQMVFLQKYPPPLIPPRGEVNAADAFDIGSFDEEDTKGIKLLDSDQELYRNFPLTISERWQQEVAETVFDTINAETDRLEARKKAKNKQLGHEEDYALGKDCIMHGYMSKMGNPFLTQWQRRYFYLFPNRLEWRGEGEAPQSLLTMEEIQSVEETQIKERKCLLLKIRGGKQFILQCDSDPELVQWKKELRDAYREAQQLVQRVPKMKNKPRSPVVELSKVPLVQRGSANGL

For `CN1CCN(Cc2ccc(Nc3ncc(Cl)c(Nc4ccccc4S(=O)(=O)N(C)C)n3)cc2)CC1` [TP-0903], the inhibition at 0.1 µM [1, 20] was 11.3%, the inhibition at 0.1 µM [1, 21] was -23.4% and the “Inhibition vs DMSO” value ([2]; Activation Loop) was -7.5%. The “Inhibition vs DMSO” value ([2]; Lys1) was -21.9%, the “Inhibition vs DMSO” value ([2]; Lys2) was -21.6% and the inhibition at 0.1 µM [3] was 23.2%. The inhibition at 0.1 µM [4] was 21.6%, the “Inhibition vs DMSO” value ([5]; Lys1) was 56.8% and the “Inhibition vs DMSO” value ([5]; Lys2) was 82.8%. The inhibition at 0.1 µM [6] was 7.5%, the inhibition at 0.1 µM [7] was -13.9% and the inhibition at 0.1 µM [8] was 1%. For the same molecule, the inhibition at 0.1 µM [9, 22] was 4.3%, the inhibition at 0.1 µM [9, 20] was -38.6% and the inhibition at 0.1 µM [9, 21] was 4.1%. For the same molecule, the inhibition at 0.1 µM [10] was 58.8%, the inhibition at 0.1 µM [11] was 7.6% and the inhibition at 0.1 µM [12] was -5%. It also gave an inhibition at 0.1 µM [13] of 18.2%, an inhibition at 0.1 µM [14, 22] of 45.7% and an inhibition at 0.1 µM [14, 20] of 48%. The inhibition at 0.1 µM [14, 21] was 48.8%, the “Inhibition vs DMSO” value ([15]; Lys1) was 2.7% and the “Inhibition vs DMSO” value ([15]; Lys2) was 16.8%. For the same molecule, the inhibition at 0.1 µM [16] was -21.7%, the inhibition at 0.1 µM [17] was 55.7% and the inhibition at 0.1 µM [18] was -8.3%. The inhibition at 0.1 µM [19] was 7.6%.
